Source: EP2929883A1, “Pyrazole derivatives as dihydroorotate dehydrogenase (DHODH) inhibitors” (INSTITUT PASTEUR, priority 2014, dated 2015)
Converted amounts (≈) assume the structure as drawn.

Test system: measles virus
Assay: microbe, parasite or virus in culture
Settings: Measles morbillivirus; for MIC50: 24 h

| SMILES | IC50 (HEK-293T, read-out: IC50 on the measles virus) [µM] | MIC50 [µM] |
| --- | --- | --- |
| Cc1c(-c2ccc(-c3ccccc3F)cc2)nc2ccc(F)cc2c1C(=O)O [brequinar, reference compound] | 0.04 |  |
| CCOc1nn(-c2ccccn2)c2c1CCN(Cc1ccccc1)C2 [example 1, 6-benzyl-3-ethoxy-1-(pyridin-2-yl)-4,5,6,7-tetrahydro-1H-pyrazolo[3,4-c]pyridine] |  | > 5 |
| CCOc1cc(Cc2ccccc2)n(-c2ncc(CC)cn2)n1 [example 2, 2-(5-benzyl-3-ethoxy-1H-pyrazol-1-yl)-5-ethylpyrimidine] |  | > 5 |
| CCOc1cc(Cc2ccccc2)n(-c2ccccn2)n1 [example 3, 2-(5-benzyl-3-ethoxy-1H-pyrazol-1-yl)pyridine] |  | > 5 |
| Cc1c(Oc2c(F)cccc2F)c(OC(C)C)nn1-c1ccccn1 [example 4, 2-(4-(2,6-difluorophenoxy)-3-isopropoxy-5-methyl-1H-pyrazol-1-yl)pyridine] |  | > 5 |
| CCc1cnc(-n2nc(OC(C)C)c(Oc3c(F)cccc3F)c2C)c(F)c1 [example 5A, 2-(4-(2,6-difluorophenoxy)-3-isopropoxy-5-methyl-1H-pyrazol-1-yl)-5-ethyl-3-fluoropyridine] |  | 0.05 to 0.5 (≈ 0.0196 to 0.196 µg/mL) |
| CCCc1cnc(-n2nc(OC(C)C)c(Oc3c(F)cccc3F)c2C)nc1 [example 6, 2-(4-(2,6-difluorophenoxy)-3-isopropoxy-5-methyl-1H-pyrazol-1-yl)-5-propylpyrimidine] |  | 0.0005 to 0.05 (≈ 0.000194 to 0.0194 µg/mL) |
| Cc1c(Oc2c(F)cccc2F)c(OC(C)C)nn1-c1ccc(C2CC2)nn1 [example 7, 3-cyclopropyl-6-(4-(2,6-difluorophenoxy)-3-isopropoxy-5-methyl-1H-pyrazol-1-yl)pyridazine] |  | 0.0005 to 0.05 (≈ 0.000193 to 0.0193 µg/mL) |
| Cc1c(Oc2c(F)cccc2F)c(OC(C)C)nn1-c1ccc(C2CC2)cn1 [example 9, 5-cyclopropyl-2-(4-(2,6-difluorophenoxy)-3-isopropoxy-5-methyl-1H-pyrazol-1-yl)pyridine] |  | 0.0005 to 0.05 (≈ 0.000193 to 0.0193 µg/mL) |
| Cc1ccc(-n2nc(OC(C)C)c(Oc3c(F)cccc3F)c2C)nc1 [example 9A, 2-(4-(2,6-difluorophenoxy)-3-isopropoxy-5-methyl-1H-pyrazol-1-yl)-5-methylpyridine] |  | 0.0005 to 0.05 (≈ 0.00018 to 0.018 µg/mL) |
| CCc1ccc(-n2nc(OC(C)C)c(Oc3c(F)cccc3F)c2C)nc1 [example 9B, 2-(4-(2,6-difluorophenoxy)-3-isopropoxy-5-methyl-1H-pyrazol-1-yl)-5-ethylpyridine] |  | 0.05 to 0.5 (≈ 0.0187 to 0.187 µg/mL) |
| CCc1cnc(-n2nc(OC(C)C)c(Cc3cccc(F)c3)c2C)nc1 [example 11, 5-ethyl-2-(4-(3-fluorobenzyl)-3-isopropoxy-5-methyl-1H-pyrazol-1-yl)pyrimidine] |  | 0.0005 to 0.05 (≈ 0.000177 to 0.0177 µg/mL) |
| Cc1ccc(-n2nc(OC(C)C)c(Oc3c(F)cccc3F)c2C)nn1 [example 12, 3-(4-(2,6-difluorophenoxy)-3-isopropoxy-5-methyl-1H-pyrazol-1-yl)-6-methylpyridazine] |  | 0.0005 to 0.05 (≈ 0.00018 to 0.018 µg/mL) |
| Cc1c(Oc2c(F)cccc2F)c(OC(C)C)nn1-c1ncc(C2CC2)cn1 [example 13, 5-cyclopropyl-2-(4-(2,6-difluorophenoxy)-3-isopropoxy-5-methyl-1H-pyrazol-1-yl)pyrimidine] |  | 0.0005 to 0.05 (≈ 0.000193 to 0.0193 µg/mL) |
| Cc1c(Oc2c(F)cccc2F)c(OC(C)C)nn1-c1ncc(F)cn1 [example 14, 2-(4-(2,6-difluorophenoxy)-3-isopropoxy-5-methyl-1H-pyrazol-1-yl)-5-fluoropyrimidine] |  | 0.05 to 0.5 (≈ 0.0182 to 0.182 µg/mL) |
| Cc1c(Oc2c(F)cccc2F)c(OC(C)C)nn1-c1ccc(Cl)nn1 [example 15, 3-chloro-6-(4-(2,6-difluorophenoxy)-3-isopropoxy-5-methyl-1H-pyrazol-1-yl)pyridazine] |  | 0.05 to 0.5 (≈ 0.019 to 0.19 µg/mL) |
| Cc1c(Oc2cccc(F)c2F)c(OC(C)C)nn1-c1ccc(C2CC2)cn1 [example 16, 5-cyclopropyl-2-(4-(2,3-difluorophenoxy)-3-isopropoxy-5-methyl-1H-pyrazol-1-yl)pyridine] |  | 0.0005 to 0.05 (≈ 0.000193 to 0.0193 µg/mL) |
| Cc1c(Oc2ccc(F)cc2F)c(OC(C)C)nn1-c1ccc(C2CC2)cn1 [example 17, 5-cyclopropyl-2-(4-(2,4-difluorophenoxy)-3-isopropoxy-5-methyl-1H-pyrazol-1-yl)pyridine] |  | 0.05 to 0.5 (≈ 0.0193 to 0.193 µg/mL) |
| Cc1c(Oc2cc(F)ccc2F)c(OC(C)C)nn1-c1ccc(C2CC2)cn1 [example 18, 5-cyclopropyl-2-(4-(2,5-difluorophenoxy)-3-isopropoxy-5-methyl-1H-pyrazol-1-yl)pyridine] |  | 0.0005 to 0.05 (≈ 0.000193 to 0.0193 µg/mL) |
| CCc1cnc(-n2nc(OC(C)C)c(Oc3cc(F)ccc3F)c2C)nc1 [example 19, 2-(4-(2,5-difluorophenoxy)-3-isopropoxy-5-methyl-1H-pyrazol-1-yl)-5-ethylpyrimidine] |  | 0.0005 to 0.05 (≈ 0.000187 to 0.0187 µg/mL) |
| Cc1c(Cc2ccccc2)c(OC(C)C)nn1-c1ncc(C2CC2)cn1 [example 21, 2-(4-benzyl-3-isopropoxy-5-methyl-1H-pyrazol-1-yl)-5-cyclopropylpyrimidine] |  | 0.0005 to 0.05 (≈ 0.000174 to 0.0174 µg/mL) |
| Cc1nn(-c2ncc(C3CC3)cn2)c(OC(C)C)c1Cc1ccccc1 [example 22, 2-(4-benzyl-5-isopropoxy-3-methyl-1H-pyrazol-1-yl)-5-cyclopropylpyrimidine] |  | 0.05 to 0.5 (≈ 0.0174 to 0.174 µg/mL) |
| CCc1cnc(-n2nc(OC(C)C)c(Cc3ccccc3F)c2C)nc1 [example 23, 5-ethyl-2-(4-(2-fluorobenzyl)-3-isopropoxy-5-methyl-1H-pyrazol-1-yl)pyrimidine] |  | 0.0005 to 0.05 (≈ 0.000177 to 0.0177 µg/mL) |

| SMILES | IC50 (HEK-293T, read-out: IC50 on the measles virus) [µM] | MIC50 [µM] |
| --- | --- | --- |
| CCc1cnc(-n2nc(OC(C)C)c(Cc3ccc(F)cc3)c2C)nc1 [example 24, 5-ethyl-2-(4-(4-fluorobenzyl)-3-isopropoxy-5-methyl-1H-pyrazol-1-yl)pyrimidine] |  | 0.0005 to 0.05 (≈ 0.000177 to 0.0177 µg/mL) |
| CCOc1nn(-c2ncc(CC)cn2)c(C)c1Cc1ccccc1 [example 25, 2-(4-benzyl-3-ethoxy-5-methyl-1H-pyrazol-1-yl)-5-ethylpyrimidine] |  | 0.0005 to 0.05 (≈ 0.000161 to 0.0161 µg/mL) |
| CCOc1c(Cc2ccccc2)c(C)nn1-c1ncc(CC)cn1 [example 26, 2-(4-benzyl-5-ethoxy-3-methyl-1H-pyrazol-1-yl)-5-ethylpyrimidine] |  | 0.5 to 5 (≈ 0.161 to 1.61 µg/mL) |
| CCCc1cnc(-n2nc(OCC)c(Cc3ccccc3)c2C)nc1 [example 27, 2-(4-benzyl-3-ethoxy-5-methyl-1H-pyrazol-1-yl)-5-propylpyrimidine] |  | 0.0005 to 0.05 (≈ 0.000168 to 0.0168 µg/mL) |
| CCCCCc1cnc(-n2nc(OCC)c(Cc3ccccc3)c2C)nc1 [example 28, 2-(4-benzyl-3-ethoxy-5-methyl-1H-pyrazol-1-yl)-5-pentylpyrimidine] |  | > 5 |
| CCOc1nn(-c2ncc(C3CC3)cn2)c(C)c1Cc1ccccc1 [example 29, 2-(4-benzyl-3-ethoxy-5-methyl-1H-pyrazol-1-yl)-5-cyclopropylpyrimidine] |  | 0.0005 to 0.05 (≈ 0.000167 to 0.0167 µg/mL) |
| CCOc1nn(-c2ccccn2)c(C)c1Cc1ccccc1 [example 30, 2-(4-benzyl-3-ethoxy-5-methyl-1H-pyrazol-1-yl)pyridine] |  | > 5 |
| CCOc1nn(-c2ccc(C)cn2)c(C)c1Cc1ccccc1 [example 31, 2-(4-benzyl-3-ethoxy-5-methyl-1H-pyrazol-1-yl)-5-methylpyridine] |  | 0.5 to 5 (≈ 0.154 to 1.54 µg/mL) |
| CCOc1nn(-c2cc(C)ccn2)c(C)c1Cc1ccccc1 [example 32, 2-(4-benzyl-3-ethoxy-5-methyl-1H-pyrazol-1-yl)-4-methylpyridine] |  | 0.5 to 5 (≈ 0.154 to 1.54 µg/mL) |
| CCOc1nn(-c2cccc(C)n2)c(C)c1Cc1ccccc1 [example 33, 2-(4-benzyl-3-ethoxy-5-methyl-1H-pyrazol-1-yl)-6-methylpyridine] |  | > 5 |
| CCOc1nn(-c2ccc(C(C)(C)O)cn2)c(C)c1Cc1ccccc1 [example 34, 2-(6-(4-benzyl-3-ethoxy-5-methyl-1H-pyrazol-1-yl)pyridin-3-yl)propan-2-ol] |  | > 5 |
| CCOc1nn(-c2ncc(C3CC3)cc2F)c(C)c1Cc1ccccc1 [example 35, 2-(4-benzyl-3-ethoxy-5-methyl-1H-pyrazol-1-yl)-5-cyclopropyl-3-fluoropyridine] |  | 0.05 to 0.5 (≈ 0.0176 to 0.176 µg/mL) |
| CCOc1nn(-c2ncc(C3CC3)cc2C#N)c(C)c1Cc1ccccc1 [example 36, 2-(4-benzyl-3-ethoxy-5-methyl-1H-pyrazol-1-yl)-5-cyclopropylnicotinonitrile] |  | 0.05 to 0.5 (≈ 0.0179 to 0.179 µg/mL) |
| CCOc1nn(-c2ncccc2F)c(C)c1Cc1ccccc1 [example 37, 2-(4-benzyl-3-ethoxy-5-methyl-1H-pyrazol-yl)-3-fluoropyridine] |  | > 5 |
| CCOc1nn(-c2ccc(C(F)(F)F)cn2)c(C)c1Cc1ccccc1 [example 38, 2-(4-benzyl-3-ethoxy-5-methyl-1H-pyrazol-1-yl)-5-(trifluoromethyl)pyridine] |  | 0.5 to 5 (≈ 0.181 to 1.81 µg/mL) |
| CCOc1nn(-c2ccc(Cl)cn2)c(C)c1Cc1ccccc1 [example 39, 2-(4-benzyl-3-ethoxy-5-methyl-1H-pyrazol-1-yl)-5-chloropyridine] |  | 0.5 to 5 (≈ 0.164 to 1.64 µg/mL) |
| CCOc1nn(-c2ncc(Br)cc2F)c(C)c1Cc1ccccc1 [example 40, 2-(4-benzyl-3-ethoxy-5-methyl-1H-pyrazol-1-yl)-5-bromo-3-fluoropyridine] |  | 0.5 to 5 (≈ 0.195 to 1.95 µg/mL) |
| CCOc1nn(-c2ccc(Br)cn2)c(C)c1Cc1ccccc1 [example 41, 2-(4-benzyl-3-ethoxy-5-methyl-1H-pyrazol-1-yl)-5-bromopyridine] |  | > 5 |
| CCOc1nn(-c2ncc(Br)cn2)c(C)c1Cc1ccccc1 [example 42, 2-(4-benzyl-3-ethoxy-5-methyl-1H-pyrazol-1-yl)-5-bromopyrimidine] |  | 0.05 to 0.5 (≈ 0.0187 to 0.187 µg/mL) |
| CCOc1c(Cc2ccccc2)c(C)nn1-c1ncc(Br)cn1 [example 43, 2-(4-benzyl-5-ethoxy-3-methyl-1H-pyrazol-1-yl)-5-bromopyrimidine] |  | > 5 |
| Cc1c(Cc2ccccc2)c(=O)n(-c2ncc(Br)cn2)n1-c1ncc(Br)cn1 [example 44, 4-benzyl-1,2-bis(5-bromopyrimidin-2-yl)-5-methyl-1H-pyrazol-3(2H)-one] |  | 0.5 to 5 (≈ 0.251 to 2.51 µg/mL) |
| Cc1c(Oc2c(F)cccc2F)c(OC(C)C)nn1-c1cnc(C2CC2)cn1 [example 45, 2-cyclopropyl-5-(4-(2,6-difluorophenoxy)-3-isopropoxy-5-methyl-1H-pyrazol-1-yl)pyrazine] |  | 0.0005 to 0.05 (≈ 0.000193 to 0.0193 µg/mL) |
| Cc1c(Oc2c(F)cccc2F)c(OC(C)C)nn1-c1ncc(C2CC2)cc1C#N [example 46, 5-cyclopropyl-2-(4-(2,6-difluorophenoxy)-3-isopropoxy-5-methyl-1H-pyrazol-1-yl)nicotinonitrile] |  | 0.0005 to 0.05 (≈ 0.000205 to 0.0205 µg/mL) |
